# Assay results published in US20210038607A1, “OXADIAZOLYLTHIOPHENE DERIVATIVES USEFUL AS HISTONE DEACETYLASE INHIBITORS” (Karus Therapeutics Limited, priority 2018, published 2021).
# What was measured:
# Human HDAC1 = biological target: T1, Human HDAC1 (Homo sapiens, UniProt Q13547); experiment: HDAC1 biochemical assay, AMC-labeled peptide substrate; details: read-out: HDAC Isoform IC50 (nM) 1
# T1 construct: full length with C-terminal His-tag and C-terminal FLAG-tag; His (C); FLAG (C); host or cells: baculovirus expression system
# Outline: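 Two-step fluorogenic read: HDAC1 deacetylates 50 μM acetyl-lysine AMC peptide RHKK(Ac)AMC for 1 h at 30° C (pH 8.0, 1% DMSO, with compound), then developer digests the product for fluorescence at Ex/Em 360/460. Enzyme is full-length human, His/FLAG-tagged, insect-cell expressed, at 0.3 ng/ul.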
# Human HDAC9 = biological target: T2, Human HDAC9 (Homo sapiens, UniProt Q9UKV0); experiment: HDAC9 biochemical assay, class IIa-specific substrate; details: read-out: HDAC Isoform IC50 (nM) 9
# T2 construct: amino acids 604-1066 with C-terminal His tag; His (C); host or cells: baculovirus expression system
# Outline: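 HDAC9 residues 604-1066 (C-terminal His tag, baculovirus-expressed) at 0.06 ng/ul with 50 μM class IIa substrate Boc-Lys(trifluoroacetyl)-AMC in Tris-HCl pH 8.0 buffer with BSA and 1% DMSO. 30 min at room temperature, then developer added; fluorescence read at 360/460 nm Ex/Em.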
# Human HDAC7 = biological target: T3, Human HDAC7 (Homo sapiens, UniProt Q8WUI4); experiment: HDAC7 biochemical assay, class IIa-specific substrate; details: read-out: HDAC Isoform IC50 (nM) 7
# T3 construct: (a.a. 518-end) with N-terminal GST tag; GST (N); host or cells: baculovirus expression system
# T3 sequence (Q8WUI4 518-952 limits assumed): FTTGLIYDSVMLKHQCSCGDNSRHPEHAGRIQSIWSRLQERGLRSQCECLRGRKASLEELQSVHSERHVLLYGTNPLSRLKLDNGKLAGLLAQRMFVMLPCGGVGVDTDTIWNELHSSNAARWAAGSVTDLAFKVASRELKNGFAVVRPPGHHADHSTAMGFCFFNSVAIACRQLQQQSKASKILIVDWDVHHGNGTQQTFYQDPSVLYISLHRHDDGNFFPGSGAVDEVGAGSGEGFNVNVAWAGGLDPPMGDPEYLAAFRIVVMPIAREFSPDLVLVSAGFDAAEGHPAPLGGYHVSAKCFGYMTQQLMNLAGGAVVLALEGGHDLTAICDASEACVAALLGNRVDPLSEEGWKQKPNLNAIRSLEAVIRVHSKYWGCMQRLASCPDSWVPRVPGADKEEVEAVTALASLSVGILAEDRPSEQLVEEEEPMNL
# Outline: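 Two-step fluorogenic readout: class IIa-selective trifluoroacetyl-lysine AMC substrate (50 μM) deacetylated by N-terminal GST-HDAC7 fragment (0.001 ng/ul), then digested by developer, Ex/Em 360/460. Reaction: 30 min, room temperature, Tris-HCl pH 8.0, NaCl/KCl/MgCl2, 1 mg/mL BSA, 1% DMSO.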
# T2 sequence (Q9UKV0 604-1066 isoform Q9UKV0-5): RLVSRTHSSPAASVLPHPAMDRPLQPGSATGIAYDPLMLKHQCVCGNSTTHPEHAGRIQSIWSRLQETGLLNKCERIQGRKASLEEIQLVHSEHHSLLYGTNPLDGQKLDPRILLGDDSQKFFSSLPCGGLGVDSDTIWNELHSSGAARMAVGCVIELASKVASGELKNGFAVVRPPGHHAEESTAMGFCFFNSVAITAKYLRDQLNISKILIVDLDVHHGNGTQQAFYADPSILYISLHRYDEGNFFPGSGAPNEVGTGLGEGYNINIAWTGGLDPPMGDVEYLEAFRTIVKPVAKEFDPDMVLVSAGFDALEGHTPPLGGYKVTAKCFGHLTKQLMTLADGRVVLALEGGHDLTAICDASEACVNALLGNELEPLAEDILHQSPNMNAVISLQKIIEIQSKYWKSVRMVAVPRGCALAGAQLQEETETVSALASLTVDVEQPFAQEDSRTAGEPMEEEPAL
# T1 sequence (Q13547 whole entry, canonical isoform): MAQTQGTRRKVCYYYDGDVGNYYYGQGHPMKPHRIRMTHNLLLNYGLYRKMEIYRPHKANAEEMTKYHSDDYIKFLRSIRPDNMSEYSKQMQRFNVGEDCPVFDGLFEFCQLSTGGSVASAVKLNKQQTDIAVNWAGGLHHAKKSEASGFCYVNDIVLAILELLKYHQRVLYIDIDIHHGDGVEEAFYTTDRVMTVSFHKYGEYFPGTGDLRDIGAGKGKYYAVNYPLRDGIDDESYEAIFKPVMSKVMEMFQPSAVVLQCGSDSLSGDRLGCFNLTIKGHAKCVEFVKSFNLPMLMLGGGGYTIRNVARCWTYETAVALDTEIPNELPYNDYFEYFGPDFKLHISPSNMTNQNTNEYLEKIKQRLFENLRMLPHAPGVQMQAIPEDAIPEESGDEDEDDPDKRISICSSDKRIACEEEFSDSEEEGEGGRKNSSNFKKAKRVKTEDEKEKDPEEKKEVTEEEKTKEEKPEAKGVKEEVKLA
IC50 (Human HDAC1) [nM],IC50 (Human HDAC9) [nM],IC50 (Human HDAC7) [nM],SMILES
> 10000,> 10000,≤ 10000,"FC(F)(F)c1cnnc(N(Cc2ccc(-c3noc(C(F)(F)F)n3)s2)c2cc(C(F)(F)F)cnn2)c1 [Example EU, 5-(Trifluoromethyl)-N-({5-[5-(trifluoromethyl)-1,2,4-oxadiazol-3-yl]thiophen-2-yl}methyl)-N-[5-(trifluoromethyl)pyridazin-3-yl]pyridazin-3-amine]"
> 10000,≤ 10000,≤ 10000,"FC(F)(F)c1cnnc(N(Cc2ccc(-c3noc(C(F)(F)F)n3)s2)c2cccnn2)c1 [Example ER, N-(Pyridazin-3-yl)-5-(trifluoromethyl)-N-({5-[5-(trifluoromethyl)-1,2,4-oxadiazol-3-yl]thiophen-2-yl}methyl)pyridazin-3-amine]"
> 10000,> 10000,≤ 10000,"COc1cncc(N(Cc2ccc(-c3noc(C(F)(F)F)n3)s2)c2cc(C(F)(F)F)cnn2)n1 [Example EN, N-(6-Methoxypyrazin-2-yl)-5-(trifluoromethyl)-N-({5-[5-(trifluoromethyl)-1,2,4-oxadiazol-3-yl]thiophen-2-yl}methyl)pyridazin-3-amine]"
